Laboratory results reported in paper PMC5218480 (PLoS ONE, 2017).

System: MV-4-11 cells
Assay: Gene expression microarray analysis (Affymetrix PrimeView) and GSEA
Format: cell-based, human
Design: RFU PODN (11730768_x_at) / Fold change /veh PODN (11730768_x_at) / RFU LINC00158 (11744669_a_at) / Fold change /veh LINC00158 (11744669_a_at) / RFU DUSP10 (11751237_a_at) / Fold change /veh DUSP10 (11751237_a_at) / RFU ID3 (11757404_x_at) / Fold change /veh ID3 (11757404_x_at) / RFU PLEKHG5 (11737974_s_at) / Fold change /veh PLEKHG5 (11737974_s_at) / RFU LRRC4B (11730491_at) / Fold change /veh LRRC4B (11730491_at) / RFU GIMAP4 (11747438_a_at) / Fold change /veh GIMAP4 (11747438_a_at) / RFU KRT8 (11758183_x_at) / Fold change /veh KRT8 (11758183_x_at) / RFU CNN1 (11734310_a_at) / Fold change /veh CNN1 (11734310_a_at) / RFU VPS37D (11726825_at) / Fold change /veh VPS37D (11726825_at) / RFU C10orf10 (11716522_x_at) / Fold change /veh C10orf10 (11716522_x_at) / RFU KIR2DL2 /// KIR2DL4 /// KIR2DL5A /// KIR2DL5B /// KIR2DS1 /// KIR2DS2 /// KIR2DS3 /// KIR2DS4 /// KIR3DL3 /// KIR3DL3 /// KIR3DS1 (11738374_at) / Fold change /veh KIR2DL2 /// KIR2DL4 /// KIR2DL5A /// KIR2DL5B /// KIR2DS1 /// KIR2DS2 /// KIR2DS3 /// KIR2DS4 /// KIR3DL3 /// KIR3DL3 /// KIR3DS1 (11738374_at) / RFU C1QL1 (11718748_at) / Fold change /veh C1QL1 (11718748_at) / RFU TMPRSS4 (11747572_a_at) / Fold change /veh TMPRSS4 (11747572_a_at) / RFU HAMP (11756126_x_at) / Fold change /veh HAMP (11756126_x_at) / RFU RNFT2 (11725882_a_at) / Fold change /veh RNFT2 (11725882_a_at) / RFU NR4A2 (11747474_a_at) / Fold change /veh NR4A2 (11747474_a_at) / RFU ABCC12 (11746883_a_at) / Fold change /veh ABCC12 (11746883_a_at) / RFU TMEM136 (11760407_x_at) / Fold change /veh TMEM136 (11760407_x_at) / RFU CLDN22 /// WWC2 (11732394_at) / Fold change /veh CLDN22 /// WWC2 (11732394_at) / RFU HLA-DPB1 (11760878_x_at) / Fold change /veh HLA-DPB1 (11760878_x_at) / RFU SPINT1 (11716480_a_at) / Fold change /veh SPINT1 (11716480_a_at) / RFU GAP43 (11754022_s_at) / Fold change /veh GAP43 (11754022_s_at) / RFU A4GNT (11735810_at) / Fold change /veh A4GNT (11735810_at) / RFU PRB3 (11715151_x_at) / Fold change /veh PRB3 (11715151_x_at) / RFU TUBB4B (11761932_at) / Fold change /veh TUBB4B (11761932_at) / RFU CAPN14 (11732068_a_at) / Fold change /veh CAPN14 (11732068_a_at) / RFU TMCC2 (11721928_a_at) / Fold change /veh TMCC2 (11721928_a_at) / RFU IRGQ (11745062_a_at) / Fold change /veh IRGQ (11745062_a_at) / RFU FAM174B (11720279_a_at) / Fold change /veh FAM174B (11720279_a_at) / RFU TMPRSS4 (11748680_a_at) / Fold change /veh TMPRSS4 (11748680_a_at) / RFU FAM212B (11763350_a_at) / Fold change /veh FAM212B (11763350_a_at) / RFU PLEKHG5 (11743358_a_at) / Fold change /veh PLEKHG5 (11743358_a_at) / RFU ZSCAN30 (11745921_a_at) / Fold change /veh ZSCAN30 (11745921_a_at) / RFU CMKLR1 (11741424_a_at) / Fold change /veh CMKLR1 (11741424_a_at) / RFU LOC101060620 /// MAPK8IP1 (11723275_at) / Fold change /veh LOC101060620 /// MAPK8IP1 (11723275_at) / RFU SPTSSB (11747773_x_at) / Fold change /veh SPTSSB (11747773_x_at) / RFU PRSS12 (11739890_at) / Fold change /veh PRSS12 (11739890_at) / RFU BIN1 (11741810_x_at) / Fold change /veh BIN1 (11741810_x_at) / RFU WNT11 (11732464_a_at) / Fold change /veh WNT11 (11732464_a_at) / RFU C10orf10 (11716521_a_at) / Fold change /veh C10orf10 (11716521_a_at) / RFU C5orf56 (11738089_at) / Fold change /veh C5orf56 (11738089_at) / RFU CYB561 (11721691_x_at) / Fold change /veh CYB561 (11721691_x_at) / RFU ANKRD19P (11752326_a_at) / Fold change /veh ANKRD19P (11752326_a_at) / RFU OR2T12 /// OR2T33 /// OR2T8 (11738714_s_at) / Fold change /veh OR2T12 /// OR2T33 /// OR2T8 (11738714_s_at) / RFU VCAN (11748164_a_at) / Fold change /veh VCAN (11748164_a_at) / RFU JSRP1 (11732532_at) / Fold change /veh JSRP1 (11732532_at) / RFU KRTAP10-11 (11738290_x_at) / Fold change /veh KRTAP10-11 (11738290_x_at) / RFU MYO3A (11730013_a_at) / Fold change /veh MYO3A (11730013_a_at) / RFU EBF3 (11725865_a_at) / Fold change /veh EBF3 (11725865_a_at) / RFU CAMK2N1 (11719241_x_at) / Fold change /veh CAMK2N1 (11719241_x_at) / RFU C5orf56 (11738088_a_at) / Fold change /veh C5orf56 (11738088_a_at) / RFU OLFML3 (11715873_a_at) / Fold change /veh OLFML3 (11715873_a_at) / RFU LOC100653217 /// NTM (11731650_a_at) / Fold change /veh LOC100653217 /// NTM (11731650_a_at) / RFU MAPK11 (11762145_a_at) / Fold change /veh MAPK11 (11762145_a_at) / RFU FIZ1 (11724087_x_at) / Fold change /veh FIZ1 (11724087_x_at) / RFU OASL (11726364_x_at) / Fold change /veh OASL (11726364_x_at) / RFU SOX15 (11748057_x_at) / Fold change /veh SOX15 (11748057_x_at) / RFU CD79A (11719716_a_at) / Fold change /veh CD79A (11719716_a_at) / RFU HIST1H1D (11736915_at) / Fold change /veh HIST1H1D (11736915_at) / RFU CASKIN2 (11723855_a_at) / Fold change /veh CASKIN2 (11723855_a_at) / RFU LOC730098 (11760151_x_at) / Fold change /veh LOC730098 (11760151_x_at) / RFU OR4N2 (11742367_at) / Fold change /veh OR4N2 (11742367_at) / RFU PRRT2 (11749266_a_at) / Fold change /veh PRRT2 (11749266_a_at) / RFU SNX32 (11753110_a_at) / Fold change /veh SNX32 (11753110_a_at) / RFU CDHR5 (11726645_a_at) / Fold change /veh CDHR5 (11726645_a_at) / RFU RCAN1 (11760418_a_at) / Fold change /veh RCAN1 (11760418_a_at) / RFU FAM167A (11723789_a_at) / Fold change /veh FAM167A (11723789_a_at) / RFU FAM26E (11764081_at) / Fold change /veh FAM26E (11764081_at) / RFU ISYNA1 (11749810_s_at) / Fold change /veh ISYNA1 (11749810_s_at) / RFU ACY1 (11761880_at) / Fold change /veh ACY1 (11761880_at) / RFU 11764098_at / Fold change /veh 11764098_at / RFU SAMD14 (11745864_x_at) / Fold change /veh SAMD14 (11745864_x_at) / RFU NPB (11741838_a_at) / Fold change /veh NPB (11741838_a_at) / RFU TMPRSS6 (11731388_a_at) / Fold change /veh TMPRSS6 (11731388_a_at) / RFU KRTAP10-2 (11738614_at) / Fold change /veh KRTAP10-2 (11738614_at) / RFU ARHGAP8 /// PRR5-ARHGAP8 (11727945_x_at) / Fold change /veh ARHGAP8 /// PRR5-ARHGAP8 (11727945_x_at) / RFU KRTAP5-7 /// NADSYN1 (11734609_at) / Fold change /veh KRTAP5-7 /// NADSYN1 (11734609_at) / RFU RASL12 (11751679_a_at) / Fold change /veh RASL12 (11751679_a_at) / RFU CDKN2B (11736163_a_at) / Fold change /veh CDKN2B (11736163_a_at) / RFU PRF1 (11729649_at) / Fold change /veh PRF1 (11729649_at) / RFU, ZNF638 /// ZNF638-IT1 / Fold change vs veh, ZNF638 /// ZNF638-IT1 / RFU, PANK3 / Fold change vs veh, PANK3 / RFU, SH3YL1 / Fold change vs veh, SH3YL1 / RFU, ZEB2 / Fold change vs veh, ZEB2 / RFU, NRIP1 / Fold change vs veh, NRIP1 / RFU, PTTG1IP / Fold change vs veh, PTTG1IP / RFU, CAPN2 / Fold change vs veh, CAPN2 / RFU, MED14 / Fold change vs veh, MED14 / RFU, SNORA58 / Fold change vs veh, SNORA58 / RFU, C1orf63 / Fold change vs veh, C1orf63 / RFU, LRRFIP1 / Fold change vs veh, LRRFIP1 / RFU, NDUFAF7 / Fold change vs veh, NDUFAF7 / RFU, SLC12A2 / Fold change vs veh, SLC12A2 / RFU, IBTK / Fold change vs veh, IBTK / RFU, ESF1 / Fold change vs veh, ESF1 / Fold change vs veh, TMEM50B / RFU, TAOK1 / Fold change vs veh, TAOK1 / RFU, ACBD3 / Fold change vs veh, ACBD3 / RFU, TMA16 / Fold change vs veh, TMA16 / RFU, RWDD3 / Fold change vs veh, RWDD3 / RFU, BCAT1 / Fold change vs veh, BCAT1 / RFU, EDEM3 / Fold change vs veh, EDEM3 / RFU, TMEM33 / Fold change vs veh, TMEM33 / RFU, WDR75 / Fold change vs veh, WDR75 / RFU, AHCTF1 / Fold change vs veh, AHCTF1 / RFU, TFRC / Fold change vs veh, TFRC / RFU, ZDHHC17 / Fold change vs veh, ZDHHC17 / RFU, NOM1 / Fold change vs veh, NOM1 / RFU, ARL8B / Fold change vs veh, ARL8B / RFU, ZBTB11 / Fold change vs veh, ZBTB11 / RFU, TAMM41 / Fold change vs veh, TAMM41 / RFU, KIAA1704 /// LOC100996395 / Fold change vs veh, KIAA1704 /// LOC100996395 / RFU, ING1 / Fold change vs veh, ING1 / RFU, TRMT61B / Fold change vs veh, TRMT61B / RFU, FUBP3 / Fold change vs veh, FUBP3 / RFU, TP53 / Fold change vs veh, TP53 / RFU, TNKS2 / Fold change vs veh, TNKS2 / RFU, ZFP14 / Fold change vs veh, ZFP14 / RFU, ACTR2 / Fold change vs veh, ACTR2 / RFU, PPP3R1 / Fold change vs veh, PPP3R1 / RFU, PIK3R1 / Fold change vs veh, PIK3R1 / RFU, HNRNPA1 / Fold change vs veh, HNRNPA1 / RFU, RNF170 / Fold change vs veh, RNF170 / RFU, ZNF28 / Fold change vs veh, ZNF28 / RFU, RNGTT / Fold change vs veh, RNGTT / RFU, OGT / Fold change vs veh, OGT / RFU, BRD1 / Fold change vs veh, BRD1 / RFU, MARS / Fold change vs veh, MARS / RFU, ZNF655 / Fold change vs veh, ZNF655 / RFU, FAHD1 / Fold change vs veh, FAHD1 / RFU, BDP1 / Fold change vs veh, BDP1 / RFU, LRRCC1 / Fold change vs veh, LRRCC1 / RFU, ARID1A / Fold change vs veh, ARID1A / RFU, ZNF146 / Fold change vs veh, ZNF146 / RFU, ZNF330 / Fold change vs veh, ZNF330 / RFU, GPN3 / Fold change vs veh, GPN3 / RFU, C9orf123 / Fold change vs veh, C9orf123 / RFU, N4BP2L2 / Fold change vs veh, N4BP2L2 / RFU, ARFIP1 / Fold change vs veh, ARFIP1 / RFU, FAM179B / Fold change vs veh, FAM179B / RFU, BCL10 / Fold change vs veh, BCL10 / RFU, UHRF1BP1L / Fold change vs veh, UHRF1BP1L / RFU, BET1 / Fold change vs veh, BET1 / RFU, CNOT2 / Fold change vs veh, CNOT2 / RFU, ZNF268 / Fold change vs veh, ZNF268 / Fold change vs veh, ZNF507 / RFU, DGCR2 / Fold change vs veh, DGCR2 / RFU, WDSUB1 / Fold change vs veh, WDSUB1 / Fold change vs veh, HSP90B1 /// MIR3652 / RFU, ADSS / Fold change vs veh, ADSS / RFU, GK / Fold change vs veh, GK / RFU, ZNF148 / Fold change vs veh, ZNF148 / RFU, TAF9 / Fold change vs veh, TAF9 / RFU, SLC1A5 / Fold change vs veh, SLC1A5 / RFU, SLMO2 / Fold change vs veh, SLMO2 / RFU, ABCC4 / Fold change vs veh, ABCC4 / RFU, LOC101060439 /// RAP1B / Fold change vs veh, LOC101060439 /// RAP1B / RFU, RFX7 / Fold change vs veh, RFX7 / RFU, GTPBP10 / Fold change vs veh, GTPBP10 / RFU, CNEP1R1 / Fold change vs veh, CNEP1R1 / RFU, BIVM-ERCC5 /// ERCC5 / Fold change vs veh, BIVM-ERCC5 /// ERCC5 / RFU, ILF3 / Fold change vs veh, ILF3 / RFU 11762660_at / Fold change /veh 11762660_at / RFU VCAN (11757783_s_at) / Fold change /veh VCAN (11757783_s_at) / RFU DDX43 (11728927_at) / Fold change /veh DDX43 (11728927_at) / RFU KRT8 (11758188_x_at) / Fold change /veh KRT8 (11758188_x_at) / RFU NKD1 (11759106_at) / Fold change /veh NKD1 (11759106_at) / RFU SRD5A1 (11742802_a_at) / Fold change /veh SRD5A1 (11742802_a_at) / RFU TPSAB1 /// TPSB2 (11721975_s_at) / Fold change /veh TPSAB1 /// TPSB2 (11721975_s_at) / RFU GSTM3 (11746129_a_at) / Fold change /veh GSTM3 (11746129_a_at) / RFU IL23R (11737362_x_at) / Fold change /veh IL23R (11737362_x_at) / RFU TMEM51 (11727254_a_at) / Fold change /veh TMEM51 (11727254_a_at) / RFU PIWIL2 (11732686_x_at) / Fold change /veh PIWIL2 (11732686_x_at) / RFU ORM1 (11744905_x_at) / Fold change /veh ORM1 (11744905_x_at) / RFU CCDC152 (11743942_at) / Fold change /veh CCDC152 (11743942_at) / RFU ECM1 (11717891_a_at) / Fold change /veh ECM1 (11717891_a_at) / RFU IL23R (11748794_a_at) / Fold change /veh IL23R (11748794_a_at) / RFU TNFAIP8L3 (11732012_x_at) / Fold change /veh TNFAIP8L3 (11732012_x_at) / RFU MBOAT4 (11741988_at) / Fold change /veh MBOAT4 (11741988_at) / RFU 11764193_at / Fold change /veh 11764193_at / RFU TMEM53 (11763286_at) / Fold change /veh TMEM53 (11763286_at) / RFU MAGEB2 (11727129_at) / Fold change /veh MAGEB2 (11727129_at) / RFU TMEM200A (11744735_a_at) / Fold change /veh TMEM200A (11744735_a_at) / RFU CCDC152 (11751479_a_at) / Fold change /veh CCDC152 (11751479_a_at) / RFU FAM211A (11726209_a_at) / Fold change /veh FAM211A (11726209_a_at) / RFU RGS16 (11746705_a_at) / Fold change /veh RGS16 (11746705_a_at) / RFU VCAN (11755009_s_at) / Fold change /veh VCAN (11755009_s_at) / RFU RHOB (11743442_s_at) / Fold change /veh RHOB (11743442_s_at) / RFU RGS16 (11720943_a_at) / Fold change /veh RGS16 (11720943_a_at) / RFU RGS16 (11720944_at) / Fold change /veh RGS16 (11720944_at) / RFU, VPS4B / Fold change vs veh, VPS4B / RFU, CREB1 / Fold change vs veh, CREB1 / RFU, DNAJC13 / Fold change vs veh, DNAJC13 / RFU, GNAQ / Fold change vs veh, GNAQ / RFU, CDK5R1 / Fold change vs veh, CDK5R1 / RFU, ZRANB3 / Fold change vs veh, ZRANB3 / RFU, CUL4A / Fold change vs veh, CUL4A / RFU, CCNY / Fold change vs veh, CCNY / RFU, UFL1 / Fold change vs veh, UFL1 / RFU, COG3 / Fold change vs veh, COG3 / RFU, DIAPH2 / Fold change vs veh, DIAPH2 / RFU, SKA2 / Fold change vs veh, SKA2 / RFU, AFF3 / Fold change vs veh, AFF3 / RFU, LMF1 / Fold change vs veh, LMF1 / RFU, IPO11 / Fold change vs veh, IPO11 / RFU, DFFB / Fold change vs veh, DFFB / RFU, FOXP1 / Fold change vs veh, FOXP1 / RFU, CARD8 / Fold change vs veh, CARD8 / RFU, STRN3 / Fold change vs veh, STRN3 / RFU, ADK / Fold change vs veh, ADK / RFU, RASSF2 / Fold change vs veh, RASSF2 / RFU, WIPF1 / Fold change vs veh, WIPF1 / RFU, LARP1B / Fold change vs veh, LARP1B / RFU, RASA1 / Fold change vs veh, RASA1 / RFU, RB1 / Fold change vs veh, RB1 / RFU, PPFIA1 / Fold change vs veh, PPFIA1 / RFU, MAT2A / Fold change vs veh, MAT2A / RFU, CCT5 / Fold change vs veh, CCT5 / RFU, WDR92 / Fold change vs veh, WDR92 / RFU, CUX1 / Fold change vs veh, CUX1 / RFU, TTC7A / Fold change vs veh, TTC7A / RFU, TMEM135 / Fold change vs veh, TMEM135 / RFU, DEPTOR / Fold change vs veh, DEPTOR / RFU, CPM / Fold change vs veh, CPM / RFU, DNAJB6 / Fold change vs veh, DNAJB6 / RFU, CACNA2D3 / Fold change vs veh, CACNA2D3 / RFU, DTX4 / Fold change vs veh, DTX4 / RFU, TFCP2 / Fold change vs veh, TFCP2 / RFU, GMCL1 /// GMCL1P1 / Fold change vs veh, GMCL1 /// GMCL1P1 / RFU, AEBP2 / Fold change vs veh, AEBP2 / RFU, SNHG1 /// SNORD22 /// SNORD25 /// SNORD26 /// SNORD27 /// SNORD28 /// SNORD29 /// SNORD31 / Fold change vs veh, SNHG1 /// SNORD22 /// SNORD25 /// SNORD26 /// SNORD27 /// SNORD28 /// SNORD29 /// SNORD31 / Fold change (Aza/veh), C12orf56 (ProbeSet 11735607_a_at) / Fold change (ACY-1035/veh), C12orf56 (ProbeSet 11735607_a_at) / Fold change (Aza/veh), FGFR1OP (ProbeSet 11751329_s_at) / Fold change (ACY-1035/veh), FGFR1OP (ProbeSet 11751329_s_at) / Fold change (Aza/veh), VPS36 (ProbeSet 11739960_a_at) / Fold change (ACY-1035/veh), VPS36 (ProbeSet 11739960_a_at) / RFU SYPL1 (11715823_x_at) / Fold change /veh SYPL1 (11715823_x_at) / RFU IGFBP7 (11715501_s_at) / Fold change /veh IGFBP7 (11715501_s_at) / RFU REEP3 (11722064_at) / Fold change /veh REEP3 (11722064_at) / RFU IGLL1 (11728026_x_at) / Fold change /veh IGLL1 (11728026_x_at): dose or concentration left out as unconfirmed
Settings: ProbeSet 11748670_a_at; LIST B

## Nc1ncn([C@@H]2O[C@H](CO)[C@@H](O)[C@H]2O)c(=O)n1 [azacitidine]
  Fold change vs veh, PIK3R1: 1.03
